Measurements published in PubChem BioAssay AID256 (DTP/NCI, 2004).
Values joined by “and” are separate entries in the source; they are usually repeats but may differ in a detail not shown here. Equal entries are not always repeated. Toxic doses and inconclusive results are not listed.

System: CD2F1 mice, L1210 leukemia ip, survival T/C
Test: NCI In Vivo Anticancer Drug Screen. Data for tumor model L1210 Leukemia (intraperitoneal) in CD2F1 (CDF1) mice
Conditions: endpoint: mean survival time, higher = longer survival
In short: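 In this screen, transplantable tumors were grown in mice given either the compound or its vehicle. Results were expressed as the treated measurement relative to the control measurement.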

[1] = dose: 100.0 mg/kg/injection, schedule: Q04DX002 (ip), vehicle: saline with Tween-80
[2] = dose: 200.0 mg/kg/injection, schedule: Q04DX002 (ip), vehicle: saline with Tween-80
[3] = dose: 400.0 mg/kg/injection, schedule: Q04DX002 (ip), vehicle: saline with Tween-80
[4] = dose: 25.0 mg/kg/injection, schedule: Q01DX009 (ip), vehicle: saline with Tween-80
[5] = dose: 100.0 mg/kg/injection, schedule: Q01DX009 (ip), vehicle: saline with Tween-80
[6] = dose: 200.0 mg/kg/injection, schedule: Q01DX001 (ip), vehicle: saline with Tween-80
[7] = dose: 400.0 mg/kg/injection, schedule: Q01DX001 (ip), vehicle: saline with Tween-80

CC(C(N)=O)C1CCC2(C)CCC(=O)C(C)C2C1O (stereo not given)
T/C [1]: 104 % of control | T/C [2]: 120 % of control | T/C [3]: 120 % of control

CCOc1ccc2ccccc2c1C(=O)N(CCCl)CCCl
T/C [4]: 94 % of control | T/C [5]: 104 % of control

Cc1cc2nc(NN)[nH]c2cc1C
T/C (dose: 100.0 mg/kg/injection, schedule: Q04DX003 (ip), vehicle: saline with Tween-80): 98 % of control | T/C (dose: 200.0 mg/kg/injection, schedule: Q04DX003 (ip), vehicle: saline with Tween-80): 98 % of control | T/C (dose: 400.0 mg/kg/injection, schedule: Q04DX003 (ip), vehicle: saline with Tween-80): 114 % of control

O=C(C[n+]1ccccc1)N/N=C/c1ccc(Cl)cc1
T/C [5]: 107 % of control

O=c1ccn(CC(O)c2cc3ccccc3[nH]2)c(=O)[nH]1 (stereo not given)
T/C [1]: 112 % of control | T/C [2]: 112 % of control | T/C [3]: 108 % of control

Clc1ccccc1P(c1ccccc1)c1ccccc1
T/C (dose: 25.0 mg/kg/injection, schedule: Q04DX002 (ip), vehicle: saline with Tween-80): 100 % of control | T/C (dose: 50.0 mg/kg/injection, schedule: Q04DX002 (ip), vehicle: saline with Tween-80): 100 % of control | T/C [1]: 100 % of control

O=S(=O)(F)c1cc(C[P+](c2ccccc2)(c2ccccc2)c2ccccc2)ccc1Cl
T/C (dose: 6.25 mg/kg/injection, schedule: Q04DX003 (ip), vehicle: saline with Tween-80): 104 % of control | T/C (dose: 12.5 mg/kg/injection, schedule: Q04DX003 (ip), vehicle: saline with Tween-80): 104 % of control | T/C (dose: 25.0 mg/kg/injection, schedule: Q04DX003 (ip), vehicle: saline with Tween-80): 116 % of control

CC(=O)c1ccc2c([N+](=O)[O-])ccc3c2c1CC3
T/C (dose: 100.0 mg/kg/injection, schedule: Q01DX001 (ip), vehicle: saline with Tween-80): 97 % of control | T/C [6]: 91 % of control | T/C [7]: 94 % of control

O=C(O)C[As](=O)(O)O
T/C (dose: 15.0 mg/kg/injection, schedule: Q01DX009 (ip), vehicle: saline): 100 % of control | T/C (dose: 30.0 mg/kg/injection, schedule: Q01DX009 (ip), vehicle: saline): 108 % of control | T/C (dose: 60.0 mg/kg/injection, schedule: Q01DX009 (ip), vehicle: saline): 91 % of control

CNC(=O)c1n[nH]c(C)c1N
T/C (dose: 25.0 mg/kg/injection, schedule: Q01DX009 (ip), vehicle: water): 97 % of control | T/C (dose: 50.0 mg/kg/injection, schedule: Q01DX009 (ip), vehicle: water): 98 % of control | T/C (dose: 100.0 mg/kg/injection, schedule: Q01DX009 (ip), vehicle: water): 101 % of control | T/C (dose: 200.0 mg/kg/injection, schedule: Q01DX009 (ip), vehicle: water): 98 % of control | T/C (dose: 400.0 mg/kg/injection, schedule: Q01DX009 (ip), vehicle: water): 101 % of control

Nc1nc2c(ncn2-c2ccc(OCCCc3ccccc3)cc2)c(=O)[nH]1
T/C [6]: 88 % of control | T/C [7]: 89 % of control

Nc1nc(N)c2nc(CSc3ccc(C(=O)NC(CCC(=O)O)C(=O)O)cc3)ccc2n1 (stereo not given)
T/C (dose: 0.5 mg/kg/injection, schedule: Q01DX005 (ip), vehicle: sodium bicarbonate): 121 % of control | T/C (dose: 2.0 mg/kg/injection, schedule: Q01DX005 (ip), vehicle: sodium bicarbonate): 154 % of control

CS(=O)(=O)OC[C@@H](O)[C@@H](O)COS(C)(=O)=O
T/C (dose: 100.0 mg/kg/injection, schedule: Q04DX003 (ip), vehicle: saline sonified): 94 % of control and 102 % of control | T/C (dose: 200.0 mg/kg/injection, schedule: Q04DX003 (ip), vehicle: saline sonified): 100 % of control and 108 % of control | T/C (dose: 400.0 mg/kg/injection, schedule: Q04DX003 (ip), vehicle: saline sonified): 97 % of control and 100 % of control

CC(=O)NCC(=O)[O][Sn]([c]1ccc(C)cc1)([c]1ccc(C)cc1)[c]1ccc(C)cc1
T/C (dose: 0.19 mg/kg/injection, schedule: Q01DX009 (ip), vehicle: saline): 97 % of control | T/C (dose: 0.39 mg/kg/injection, schedule: Q01DX009 (ip), vehicle: saline): 105 % of control | T/C (dose: 0.78 mg/kg/injection, schedule: Q01DX009 (ip), vehicle: saline): 103 % of control and 111 % of control | T/C (dose: 1.56 mg/kg/injection, schedule: Q01DX009 (ip), vehicle: saline): 100 % of control | T/C (dose: 3.12 mg/kg/injection, schedule: Q01DX009 (ip), vehicle: saline): 91 % of control

[Cl][Pt][Cl].c1ccc2[nH]c(C3CCCC[N-]3)nc2c1 (stereo not given)
T/C (dose: 12.5 mg/kg/injection, schedule: Q01DX009 (ip), vehicle: saline with Tween-80): 93 % of control | T/C [4]: 98 % of control | T/C (dose: 50.0 mg/kg/injection, schedule: Q01DX009 (ip), vehicle: saline with Tween-80): 94 % of control | T/C (dose: 200.0 mg/kg/injection, schedule: Q01DX009 (ip), vehicle: saline with Tween-80): 91 % of control
